Test results as given in patent US20230265524A1, “IMMUNOGENIC RETROELEMENTS AND THEIR USE IN CANCER THERAPY” (UNIVERSITY HEALTH NETWORK, priority 2020, published 2023).

Experiments:
ADAR1 = experiment: qPCR analysis of ADAR1 mRNA level and isoforms; type: cell-based, human
Procedure: C, qPCR analysis of total ADAR1 mRNA level after treatment with 5-AZA-CdR (300 nM, for 5 days) or transfection with 100 ng ml-1 poly(I:C) over a course of 24 days. Cells were washed out at day 5 and seeded in drug-free medium. Data are mean±s.e.m.****P<0.0001, Sidak-corrected two-way ANOVA.
A, ADAR1 isoforms (p110 and p150) relative expression analysed by qPCR. LACZ denotes ADAR1WT; PIC denotes 100 ng/ml poly (I:C) for 5 days; AZA denotes 300 nM 5-AZA-CdR for 5 days). Data are mean±s.e.m. (n=3 from three independent experiments). ***P<0.001, ****P<0.0001, Tukey-corrected two-way ANOVA.
To test this hypothesis, we first determined if ADAR1 depletion affects dsRNA formation by IR-Alus in untreated patient-derived CRCs. We generated ADAR1 knock-down CRCs using two different hairpin RNAs (ADAR1^KDA/B) and confirmed depletion of both the constitutively expressed (p110) and interferon-inducible (p150) ADAR1 isoforms (FIG. 8A). […] To determine if MDA5 ligands also increase upon ADAR1 depletion, we performed the MDA5 protection assay followed by RNA-Seq, as above. […] Again, these immunogenic Alus were primarily IR-Alu pairs unidirectionally transcribed in either the sense (+/+) or antisense (−/−) direction and induced upon ADAR1 depletion (FIG. 9C-J).
Next, we tested whether epigenetic therapy can induce and activate ADAR1 editing activity.

[1] = tested on: LIM1215 colorectal cancer cell lines; experiment: ISG relative expression in LIM1215 cells; type: cell-based, human; conditions: LIM1215, ADAR1 KD vs WT, 300 nM for 5 days
Procedure: B) Interferon-stimulated genes (MDA5, IRF7 and DDX58) relative expression in ADAR1^WT and ADAR1^KD LIM1215 colorectal cancer cell lines treated with 300 nM 5-AZA-CdR for 5 days.
(§1) Based on these findings, we hypothesized that ADAR1 depletion would synergize with the viral mimicry response induced by DNMTi treatment. To assess how ADAR1 depletion affects 5-AZA-CdR treated samples, we performed RNA-seq analyses in patient-derived CRC cells. […] As a molecular read-out of dsRNA pattern recognition activation, we measured MAVS aggregation in the mitochondrial fraction of cell lysates^34. […] Taken together, our findings establish that ADAR1 acts as a negative feedback loop, restricting the viral mimicry response induced by DNMTi treatment in cancer cells.

MAVS = MAVS aggregation by SDS-AGE; type: cell-based, human; conditions: ADAR1-depleted, mitochondrial fraction of cell lysates
Description: J, MAVS aggregation analyzed by SDS-AGE and MAVS protein level analyzed by SDS-PAGE. VDAC served as a loading control in SDS-PAGE.
as §1

[2] = tested on: patient-derived xenograft CRC cells; experiment: subcutaneous patient-derived xenograft CRC tumour growth in NSG mice; type: in vivo; conditions: 0.5 mg kg-1 intraperitoneal
Procedure: B, Schematic representation of in vivo experimental scheme of non-infected, ADAR1^WT, ADAR1^KDA and ADAR1^KDB patient-derived xenograft CRC cells injected subcutaneously into flanks of NSG mice (n=10 mice per group; 2 tumours per mouse). Arrows represent days of treatment (0.5 mg kg-1 5-AZA-CdR by intraperitoneal injection or vehicle).
C, Tumour volume measured at the indicated time points. Arrows represent days of treatment. ADAR1^KDA 5-AZA-CdR (n=20 tumours) and ADAR1^KDB 5-AZA-CdR (n=18 tumours at day 12 and n=14 tumours at day15) compared with non-infected (NI) 5-AZA-CdR (n=19 tumours) cohort. Data are mean±s.e.m. ****P<0.0001, Tukey-corrected two-way ANOVA
D, Colorectal cancer tumours dissected from Vehicle and 5-AZA-CdR cohorts at day 14 post-treatment are depicted for each condition (n=5) (NI=non-infected)
E, Tumour weight for each group at the time of dissection (day 14 after treatment). Data are mean±s.d. ****P<0.0001, Tukey-corrected ordinary-one-way ANOVA.
Finally, we sought to investigate whether ADAR1 inhibition would synergize with epigenetic therapy to increase the anti-tumour response. […] To examine the potential synergy in vivo, we injected ADAR1^KDA/B or wildtype patient-derived xenograft CRC cells subcutaneously into immune-deficient NOD.Cg-Prkdc (NSG) mice, and treated the mice with 5-AZA-CdR or vehicle (PBS) (FIG. 12B and FIG. 13A). […]

For `Nc1ncn([C@H]2C[C@H](O)[C@@H](CO)O2)c(=O)n1` [5-AZA-CdR], the ADAR1 expression (ADAR1; patient-derived CRCs, 300 nM for 5 days) was “up-regulated ADAR1 expression”, the “duration of ADAR1 up-regulation after drug withdrawal” value (ADAR1; washed out at day 5, drug-free medium, 24 days course) was “sustained for about fourteen days after drug withdrawal” and the “expression of IFN stimulated genes (ISGs)” value [1] was “enhanced upon ADAR1 depletion”. For the same molecule, the “MAVS activation (aggregation)” value (MAVS) was “enhanced MAVS activation”, the anti-tumour activity ([2]; ADAR1^KDA/B cells) was “remarkable anti-tumour activity” and the anti-tumour activity ([2]; wildtype cells) was “very limited anti-tumour activity”.
